Consider eleven compounds from ChEMBL document CHEMBL3132769, “Fragment growing to retain or alter the selectivity of anchored kinase hinge-binding fragments” (Medchemcomm, 2014).

The target in assay [1] is Ribosomal protein S6 kinase alpha-2 (Homo sapiens) (UniProt Q15349). Briefly: Inhibition of human full length RSK3 expressed in baculovirus assessed as substrate phosphorylation using fluorescence-labelled peptides as substrate at 0.2 uM after 90 mins by microfluidic peptide phosphorylation assay.
Chain of Ribosomal protein S6 kinase alpha-2 (Homo sapiens) (Q15349 whole entry): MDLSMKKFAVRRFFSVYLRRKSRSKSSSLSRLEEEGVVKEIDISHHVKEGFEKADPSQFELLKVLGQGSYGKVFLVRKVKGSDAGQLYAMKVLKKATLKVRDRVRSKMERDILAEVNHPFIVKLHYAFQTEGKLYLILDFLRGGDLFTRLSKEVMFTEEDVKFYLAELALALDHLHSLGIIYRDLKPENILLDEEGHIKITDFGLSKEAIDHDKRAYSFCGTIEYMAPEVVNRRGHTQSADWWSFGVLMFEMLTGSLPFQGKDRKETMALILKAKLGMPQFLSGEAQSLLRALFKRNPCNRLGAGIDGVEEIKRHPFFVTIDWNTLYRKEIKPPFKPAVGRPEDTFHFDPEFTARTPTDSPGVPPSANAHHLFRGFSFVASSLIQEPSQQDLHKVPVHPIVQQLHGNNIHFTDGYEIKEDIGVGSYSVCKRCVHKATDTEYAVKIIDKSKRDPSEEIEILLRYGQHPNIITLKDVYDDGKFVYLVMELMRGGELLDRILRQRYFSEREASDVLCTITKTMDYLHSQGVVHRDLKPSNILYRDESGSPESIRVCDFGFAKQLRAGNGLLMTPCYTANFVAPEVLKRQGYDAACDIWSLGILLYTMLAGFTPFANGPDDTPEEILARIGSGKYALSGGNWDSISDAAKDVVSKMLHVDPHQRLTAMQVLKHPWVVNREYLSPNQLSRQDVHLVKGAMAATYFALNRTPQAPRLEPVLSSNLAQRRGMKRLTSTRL
Assay [2] deals with Serine/threonine-protein kinase pim-1 (Homo sapiens) (UniProt P11309). Briefly: Inhibition of human full length PIM1 expressed in baculovirus assessed as substrate phosphorylation using fluorescence-labelled peptides as substrate at 0.1 uM after 90 mins by microfluidic peptide phosphorylation assay.
Chain of Serine/threonine-protein kinase pim-1 (Homo sapiens) (P11309 whole entry, looked up): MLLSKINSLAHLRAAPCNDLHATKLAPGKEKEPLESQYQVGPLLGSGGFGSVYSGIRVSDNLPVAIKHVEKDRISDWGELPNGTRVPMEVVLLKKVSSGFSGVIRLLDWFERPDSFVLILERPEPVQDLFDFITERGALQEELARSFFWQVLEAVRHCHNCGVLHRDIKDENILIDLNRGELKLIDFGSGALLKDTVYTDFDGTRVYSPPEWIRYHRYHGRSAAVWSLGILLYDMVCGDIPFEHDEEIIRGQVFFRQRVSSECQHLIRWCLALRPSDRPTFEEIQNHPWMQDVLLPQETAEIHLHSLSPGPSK
Assay [3] deals with Serine/threonine-protein kinase MARK1 (Homo sapiens) (UniProt Q9P0L2). Briefly: Inhibition of human full length MARK1 expressed in baculovirus assessed as substrate phosphorylation using fluorescence-labelled peptides as substrate at 420 uM after 90 mins by microfluidic peptide phosphorylation assay.
Chain of Serine/threonine-protein kinase MARK1 (Homo sapiens) (Q9P0L2 whole entry, looked up, the tested form may be a part): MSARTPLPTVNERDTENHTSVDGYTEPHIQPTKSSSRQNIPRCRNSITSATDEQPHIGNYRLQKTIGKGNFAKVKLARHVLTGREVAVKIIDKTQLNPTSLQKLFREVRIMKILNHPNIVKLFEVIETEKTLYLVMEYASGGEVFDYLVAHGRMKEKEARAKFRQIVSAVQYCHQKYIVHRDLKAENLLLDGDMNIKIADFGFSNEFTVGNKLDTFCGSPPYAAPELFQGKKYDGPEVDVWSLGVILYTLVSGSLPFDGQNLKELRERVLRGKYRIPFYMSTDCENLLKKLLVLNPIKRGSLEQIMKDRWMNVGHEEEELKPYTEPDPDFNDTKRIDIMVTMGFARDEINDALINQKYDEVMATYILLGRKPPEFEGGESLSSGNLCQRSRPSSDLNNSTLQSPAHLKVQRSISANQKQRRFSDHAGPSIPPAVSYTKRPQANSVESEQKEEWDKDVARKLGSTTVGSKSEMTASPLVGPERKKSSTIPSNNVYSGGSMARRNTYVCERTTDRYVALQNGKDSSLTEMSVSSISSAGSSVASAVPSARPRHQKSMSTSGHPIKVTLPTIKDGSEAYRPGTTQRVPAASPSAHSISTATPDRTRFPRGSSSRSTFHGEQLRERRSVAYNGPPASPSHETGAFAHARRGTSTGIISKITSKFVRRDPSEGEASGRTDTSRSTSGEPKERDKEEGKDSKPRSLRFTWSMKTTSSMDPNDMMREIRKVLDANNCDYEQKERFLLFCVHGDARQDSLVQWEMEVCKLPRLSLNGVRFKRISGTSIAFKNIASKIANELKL
Assay [4] deals with Receptor-type tyrosine-protein kinase FLT3 (Homo sapiens) (UniProt P36888). Put plainly: Inhibition of human FLT3 catalytic domain expressed in baculovirus assessed as substrate phosphorylation using fluorescence-labelled peptides as substrate at 420 uM after 90 mins by microfluidic peptide phosphorylation assay.
Chain of Receptor-type tyrosine-protein kinase FLT3 (Homo sapiens) (P36888 whole entry, the tested form may be a part): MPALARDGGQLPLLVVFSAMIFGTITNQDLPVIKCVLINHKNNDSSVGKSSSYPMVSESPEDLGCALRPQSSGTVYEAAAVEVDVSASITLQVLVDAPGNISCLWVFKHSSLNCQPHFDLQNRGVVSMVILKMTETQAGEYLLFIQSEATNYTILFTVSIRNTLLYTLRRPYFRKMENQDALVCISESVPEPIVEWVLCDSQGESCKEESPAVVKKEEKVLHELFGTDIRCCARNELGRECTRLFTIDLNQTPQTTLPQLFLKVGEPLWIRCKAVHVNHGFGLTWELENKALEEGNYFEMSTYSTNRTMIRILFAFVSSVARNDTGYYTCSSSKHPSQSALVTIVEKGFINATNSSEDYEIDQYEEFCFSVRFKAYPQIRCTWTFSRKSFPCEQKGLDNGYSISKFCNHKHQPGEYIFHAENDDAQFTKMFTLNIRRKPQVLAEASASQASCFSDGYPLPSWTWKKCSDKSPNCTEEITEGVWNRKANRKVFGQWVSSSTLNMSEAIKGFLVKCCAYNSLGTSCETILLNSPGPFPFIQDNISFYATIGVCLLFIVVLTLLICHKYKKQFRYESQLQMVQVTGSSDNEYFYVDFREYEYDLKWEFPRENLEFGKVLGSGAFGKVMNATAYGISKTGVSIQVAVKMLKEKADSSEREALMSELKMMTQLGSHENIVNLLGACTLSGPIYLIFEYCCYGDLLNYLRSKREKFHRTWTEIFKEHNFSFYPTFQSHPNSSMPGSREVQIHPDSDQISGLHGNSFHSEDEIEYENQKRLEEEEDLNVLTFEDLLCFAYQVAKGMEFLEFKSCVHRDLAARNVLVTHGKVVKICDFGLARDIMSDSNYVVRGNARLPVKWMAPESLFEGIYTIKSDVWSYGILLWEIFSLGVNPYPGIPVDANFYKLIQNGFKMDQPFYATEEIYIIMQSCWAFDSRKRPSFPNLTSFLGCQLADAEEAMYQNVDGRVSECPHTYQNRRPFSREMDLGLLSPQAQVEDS
For assay [5], the system named is Tyrosine-protein kinase ABL1 (Homo sapiens), P00519 [H396P]. Put plainly: Inhibition of human truncated ABL H396P mutant expressed in baculovirus assessed as substrate phosphorylation using fluorescence-labelled peptides as substrate at 95 uM after 90 mins by microfluidic peptide phosphorylation assay.
The target in assay [6] is Receptor-type tyrosine-protein kinase FLT3 (Homo sapiens) (UniProt P36888). Briefly: Inhibition of human FLT3 catalytic domain expressed in baculovirus assessed as substrate phosphorylation using fluorescence-labelled peptides as substrate at 95 uM after 90 mins by microfluidic peptide phosphorylation assay.
Assay [7] has as its system Tyrosine-protein kinase ABL1 (Homo sapiens), P00519 [T315I]. Put plainly: Inhibition of human truncated ABL T315I mutant expressed in baculovirus assessed as substrate phosphorylation using fluorescence-labelled peptides as substrate at 9 uM after 90 mins by microfluidic peptide phosphorylation assay.
Assay [8] deals with Calcium/calmodulin-dependent protein kinase type II subunit gamma (Homo sapiens) (UniProt Q13555). Put plainly: Inhibition of human CAMK2 gamma catalytic domain expressed in baculovirus assessed as substrate phosphorylation using fluorescence-labelled peptides as substrate at 9 uM after 90 mins by microfluidic peptide phosphorylation assay.
Assay [9] concerns the target Protein kinase C delta type (Homo sapiens) (UniProt Q05655). Put plainly: Inhibition of human truncated PKC delta expressed in baculovirus assessed as substrate phosphorylation using fluorescence-labelled peptides as substrate at 8 uM after 90 mins by microfluidic peptide phosphorylation assay.
The target in assay [10] is Protein kinase C theta type (Homo sapiens) (UniProt Q04759). Briefly: Inhibition of human truncated PKC theta expressed in baculovirus assessed as substrate phosphorylation using fluorescence-labelled peptides as substrate at […] after 90 mins by microfluidic peptide phosphorylation assay.
Chain of Protein kinase C theta type (Homo sapiens) (Q04759 whole entry, looked up, the tested form may be a part): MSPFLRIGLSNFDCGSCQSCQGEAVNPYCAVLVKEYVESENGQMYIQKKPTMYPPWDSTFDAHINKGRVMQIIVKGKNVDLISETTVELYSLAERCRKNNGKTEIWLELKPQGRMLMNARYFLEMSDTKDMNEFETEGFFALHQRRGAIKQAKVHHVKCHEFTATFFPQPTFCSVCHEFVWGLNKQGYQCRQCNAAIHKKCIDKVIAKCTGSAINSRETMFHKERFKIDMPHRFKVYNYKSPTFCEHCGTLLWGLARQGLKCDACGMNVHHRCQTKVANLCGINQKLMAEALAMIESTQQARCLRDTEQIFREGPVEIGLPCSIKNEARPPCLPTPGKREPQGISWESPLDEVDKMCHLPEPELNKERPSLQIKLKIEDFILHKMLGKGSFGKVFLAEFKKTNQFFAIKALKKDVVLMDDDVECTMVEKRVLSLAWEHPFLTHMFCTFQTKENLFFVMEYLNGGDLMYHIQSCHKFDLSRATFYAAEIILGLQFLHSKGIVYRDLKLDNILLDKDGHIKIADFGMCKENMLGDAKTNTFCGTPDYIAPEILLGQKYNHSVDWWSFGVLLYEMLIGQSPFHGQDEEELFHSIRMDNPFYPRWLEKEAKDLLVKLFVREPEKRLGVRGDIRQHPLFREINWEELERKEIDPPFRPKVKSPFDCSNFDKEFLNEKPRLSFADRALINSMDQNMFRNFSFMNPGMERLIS
The target in assay [11] is T1, Serine/threonine-protein kinase Sgk1 (Homo sapiens) (UniProt O00141).
T1 sequence (whole entry): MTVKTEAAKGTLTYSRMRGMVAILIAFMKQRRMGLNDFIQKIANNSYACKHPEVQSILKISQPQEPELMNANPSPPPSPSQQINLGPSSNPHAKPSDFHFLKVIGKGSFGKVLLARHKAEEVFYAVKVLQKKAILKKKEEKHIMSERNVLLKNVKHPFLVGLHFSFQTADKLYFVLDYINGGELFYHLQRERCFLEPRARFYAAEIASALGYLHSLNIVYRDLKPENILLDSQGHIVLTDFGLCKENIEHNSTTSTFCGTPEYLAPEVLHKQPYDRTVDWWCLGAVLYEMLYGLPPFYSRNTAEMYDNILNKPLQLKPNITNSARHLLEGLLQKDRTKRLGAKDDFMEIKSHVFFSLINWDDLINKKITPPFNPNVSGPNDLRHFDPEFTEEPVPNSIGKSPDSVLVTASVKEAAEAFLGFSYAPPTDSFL
Briefly: Inhibition of human truncated SGK1 expressed in baculovirus assessed as substrate phosphorylation using fluorescence-labelled peptides as substrate at […] after 90 mins by microfluidic peptide phosphorylation assay.

Assay [12] deals with Glycogen synthase kinase-3 beta (Homo sapiens) (UniProt P49841). Put plainly: Inhibition of human full length GSK-3 beta expressed in baculovirus assessed as substrate phosphorylation using fluorescence-labelled peptides as substrate at 1000 uM after 90 mins by microfluidic peptide phosphorylation assay.
Assay [13] has as its target T2, Mitogen-activated protein kinase 12 (Homo sapiens) (UniProt P53778).
T2 sequence (whole entry): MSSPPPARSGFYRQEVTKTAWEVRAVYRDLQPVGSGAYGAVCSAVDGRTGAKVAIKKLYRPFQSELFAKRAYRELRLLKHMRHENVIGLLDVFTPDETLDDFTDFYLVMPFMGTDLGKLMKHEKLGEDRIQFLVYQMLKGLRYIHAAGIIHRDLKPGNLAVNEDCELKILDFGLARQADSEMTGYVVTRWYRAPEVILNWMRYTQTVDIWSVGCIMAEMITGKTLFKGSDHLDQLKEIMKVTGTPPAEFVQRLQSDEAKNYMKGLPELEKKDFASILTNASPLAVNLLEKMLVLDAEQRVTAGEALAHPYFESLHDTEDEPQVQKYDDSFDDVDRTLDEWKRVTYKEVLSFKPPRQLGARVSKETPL
Briefly: Inhibition of human full length p38 gamma expressed in Escherichia coli cell assessed as substrate phosphorylation using fluorescence-labelled peptides as substrate at 0.06 uM after 90 mins by microfluidic peptide phosphorylation assay.

In assay [14] the target is Fibroblast growth factor receptor 3 (Homo sapiens) (UniProt P22607). Put plainly: Inhibition of human FGFR3 catalytic domain expressed in baculovirus assessed as substrate phosphorylation using fluorescence-labelled peptides as substrate at 2 uM after 90 mins by microfluidic peptide phosphorylation assay.
Assay [15] addresses T1, Serine/threonine-protein kinase Sgk1 (Homo sapiens). Briefly: Inhibition of human truncated SGK1 expressed in baculovirus assessed as substrate phosphorylation using fluorescence-labelled peptides as substrate at 2 uM after 90 mins by microfluidic peptide phosphorylation assay.
For assay [16], the target named is Serine/threonine-protein kinase MARK2 (Homo sapiens) (UniProt Q7KZI7). Briefly: Inhibition of human full length MARK2 expressed in baculovirus assessed as substrate phosphorylation using fluorescence-labelled peptides as substrate at 70 uM after 90 mins by microfluidic peptide phosphorylation assay.
Chain of Serine/threonine-protein kinase MARK2 (Homo sapiens) (Q7KZI7 whole entry): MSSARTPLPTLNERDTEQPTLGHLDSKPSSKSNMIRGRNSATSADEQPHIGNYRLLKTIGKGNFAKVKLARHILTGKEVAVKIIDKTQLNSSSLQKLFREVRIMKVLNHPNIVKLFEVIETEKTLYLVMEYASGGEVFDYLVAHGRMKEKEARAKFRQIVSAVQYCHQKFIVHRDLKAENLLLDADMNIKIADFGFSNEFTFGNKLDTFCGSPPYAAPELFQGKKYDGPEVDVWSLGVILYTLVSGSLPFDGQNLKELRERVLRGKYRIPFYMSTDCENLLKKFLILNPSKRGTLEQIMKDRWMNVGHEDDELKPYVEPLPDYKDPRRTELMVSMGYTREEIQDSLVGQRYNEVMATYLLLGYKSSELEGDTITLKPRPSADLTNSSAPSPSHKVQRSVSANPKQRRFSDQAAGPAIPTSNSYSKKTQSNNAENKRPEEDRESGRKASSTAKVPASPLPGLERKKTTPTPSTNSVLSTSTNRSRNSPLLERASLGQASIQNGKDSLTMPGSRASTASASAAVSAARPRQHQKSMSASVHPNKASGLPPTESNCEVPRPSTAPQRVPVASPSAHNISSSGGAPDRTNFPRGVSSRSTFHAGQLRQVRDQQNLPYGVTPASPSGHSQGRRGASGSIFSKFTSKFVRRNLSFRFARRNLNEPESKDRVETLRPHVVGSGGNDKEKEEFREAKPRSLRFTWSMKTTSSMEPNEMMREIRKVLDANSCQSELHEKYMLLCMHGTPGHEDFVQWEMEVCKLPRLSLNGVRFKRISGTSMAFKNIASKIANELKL

What is called inhibition is the relative decrease from the control value, in per cent.

Chain of Protein kinase C delta type (Homo sapiens) (Q05655 whole entry, looked up, the tested form may be a part): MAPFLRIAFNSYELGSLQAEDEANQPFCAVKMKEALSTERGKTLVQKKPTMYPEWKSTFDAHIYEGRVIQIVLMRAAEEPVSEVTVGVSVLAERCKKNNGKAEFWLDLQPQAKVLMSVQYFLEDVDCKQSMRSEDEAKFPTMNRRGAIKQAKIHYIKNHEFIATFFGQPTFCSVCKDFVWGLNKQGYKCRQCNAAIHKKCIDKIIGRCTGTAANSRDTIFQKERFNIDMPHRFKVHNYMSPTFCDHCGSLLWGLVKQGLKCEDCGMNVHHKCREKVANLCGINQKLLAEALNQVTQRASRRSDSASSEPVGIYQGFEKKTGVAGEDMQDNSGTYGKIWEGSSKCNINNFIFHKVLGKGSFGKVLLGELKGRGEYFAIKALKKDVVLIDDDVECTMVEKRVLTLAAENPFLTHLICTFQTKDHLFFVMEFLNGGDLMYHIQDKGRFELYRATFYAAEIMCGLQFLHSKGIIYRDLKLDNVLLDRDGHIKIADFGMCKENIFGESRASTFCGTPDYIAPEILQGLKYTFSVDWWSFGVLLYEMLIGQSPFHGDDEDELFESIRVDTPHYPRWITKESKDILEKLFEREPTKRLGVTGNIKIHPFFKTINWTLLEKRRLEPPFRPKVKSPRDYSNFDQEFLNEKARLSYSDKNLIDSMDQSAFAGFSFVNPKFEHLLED

Take `Clc1ccc(C2(c3ccc(-c4ncnc5[nH]cnc45)cc3)CCNCC2)cc1`: the inhibition in assay [1] is 40%.

`C[C@H](CN(C)C)Oc1nc(Nc2cc3cccc(Cl)c3cn2)cnc1C#N`: the inhibition in [2] turned out to be 9.5%.

For `c1nc(N2CCOCC2)c2nc[nH]c2n1`, the inhibition is 4.5% in [3] and 85.5% in assay [4].

Consider `NCCc1ccc(-c2ncnc3[nH]cnc23)cc1`, for which the values for the inhibition in assay [5] and in [6] were 69.5% and 49.5%, respectively.

On to `NCC1CN(c2ncnc3[nH]c4cnccc4c23)CCO1` (stereo unspecified), for which the inhibition in assay [7] was 10%; in assay [8], 24%.

As to `NCC1CCN(c2ncnc3[nH]ccc23)CC1`, in assay [9], the inhibition is 67%.

On to `COC(=O)c1cnc(Nc2cnc(C#N)cn2)cc1NCC1CCNCC1`, for which the inhibition in assay [10] was determined as 4%; in assay [11], 4.5%.

As for `c1cnc2[nH]ccc2c1`, in assay [12], the inhibition is 32%.

Consider `NC1(Cc2ccc(Cl)cc2)CCN(c2ncnc3[nH]ccc23)CC1`, for which, in assay [13], the inhibition amounted to 0%.

Turning to `NC1CCN(c2ncnc3[nH]ccc23)CC1`, the inhibition in assay [14] stood at 0%; in assay [15], 27%.

As for `CNCc1ccc(-c2ncnc3[nH]cnc23)cc1`, the inhibition in assay [16] turned out to be 61%.
